In patent publication US7183312B2, “Taxanes having a C7 heterosubstituted acetate substituent” (FSU Research Foundation, Inc., priority 2000, dated 2007):

Tested on: HCT116
Assay: In vitro cytotoxicity measured by the cell colony formation assay
Assay type: cell-based
Details: HCT116 cells; incubated with drugs for 72 h at 37° C.; colonies counted after 7 days; ID50 = drug concentration producing 50% inhibition of colony formation; read-out: IN VITRO ID 50 (nm) HCT116
Experimental: In Vitro Cytotoxicity Measured by the Cell Colony Formation Assay
Four hundred cells (HCT116) were plated in 60 mm Petri dishes containing 2.7 mL of medium (modified McCoy's 5a medium containing 10% fetal bovine serum and 100 units/mL penicillin and 100 µg/mL streptomycin). The cells were incubated in a CO2 incubator at 37° C. for 5 h for attachment to the bottom of Petri dishes. The compounds identified in Example 2 were made up fresh in medium at ten times the final concentration, and then 0.3 mL of this stock solution was added to the 2.7 mL of medium in the dish. The cells were then incubated with drugs for 72 h at 37° C. At the end of incubation the drug-containing media were decanted, the dishes were rinsed with 4 mL of Hank's Balance Salt Solution (HBSS), 5 mL of fresh medium was added, and the dishes were returned to the incubator for colony formation. The cell colonies were counted using a colony counter after incubation for 7 days.

SMILES	IC50 [nM]
COCC(=O)O[C@H]1C[C@H]2OC[C@@]2(OC(C)=O)C2[C@H](OC(=O)c3ccccc3)[C@]3(O)C[C@H](OC(=O)[C@H](O)[C@@H](NC(=O)OC(C)(C)C)c4ccco4)C(C)=C([C@@H](O)C(=O)[C@@]21C)C3(C)C (some centres unmarked) [Compound 5445]	< 1
COCC(=O)O[C@H]1C[C@H]2OC[C@@]2(OC(C)=O)C2[C@H](OC(=O)c3ccccc3)[C@]3(O)C[C@H](OC(=O)[C@H](O)[C@@H](NC(=O)C=C(C)C)c4ccco4)C(C)=C([C@@H](O)C(=O)[C@@]21C)C3(C)C (some centres unmarked) [Compound 5474]	< 1
CC(=O)OCC(=O)O[C@H]1C[C@H]2OC[C@@]2(OC(C)=O)C2[C@H](OC(=O)c3ccccc3)[C@]3(O)C[C@H](OC(=O)[C@H](O)[C@@H](NC(=O)C=C(C)C)c4ccco4)C(C)=C([C@@H](O)C(=O)[C@@]21C)C3(C)C (some centres unmarked) [Compound 5544]	< 1
CC(=O)O[C@@]12CO[C@@H]1C[C@H](OC(=O)COc1ccccc1)[C@@]1(C)C(=O)[C@H](O)C3=C(C)[C@@H](OC(=O)[C@H](O)[C@@H](NC(=O)C=C(C)C)c4ccco4)C[C@@](O)([C@@H](OC(=O)c4ccccc4)C12)C3(C)C (some centres unmarked) [Compound 5555]	< 1
CSCC(=O)O[C@H]1C[C@H]2OC[C@@]2(OC(C)=O)C2[C@H](OC(=O)c3ccccc3)[C@]3(O)C[C@H](OC(=O)[C@H](O)[C@@H](NC(=O)OC(C)(C)C)c4ccco4)C(C)=C([C@@H](O)C(=O)[C@@]21C)C3(C)C (some centres unmarked) [Compound 5600]	< 1
CC(=O)O[C@@]12CO[C@@H]1C[C@H](OC(=O)COc1ccccc1)[C@@]1(C)C(=O)[C@H](O)C3=C(C)[C@@H](OC(=O)[C@H](O)[C@@H](NC(=O)OC(C)(C)C)c4ccco4)C[C@@](O)([C@@H](OC(=O)c4ccccc4)C12)C3(C)C (some centres unmarked) [Compound 5616]	< 1
CC(=O)OCC(=O)O[C@H]1C[C@H]2OC[C@@]2(OC(C)=O)C2[C@H](OC(=O)c3ccccc3)[C@]3(O)C[C@H](OC(=O)[C@H](O)[C@@H](NC(=O)OC(C)(C)C)c4ccco4)C(C)=C([C@@H](O)C(=O)[C@@]21C)C3(C)C (some centres unmarked) [Compound 5622]	< 1
C/C=C/C(=O)N[C@@H](c1ccco1)[C@@H](O)C(=O)O[C@H]1C[C@@]2(O)[C@@H](OC(=O)c3ccccc3)C3[C@](C)(C(=O)[C@H](O)C(=C1C)C2(C)C)[C@@H](OC(=O)COc1ccccc1)C[C@H]1OC[C@@]31OC(C)=O (some centres unmarked) [Compound 5811]	< 1
C/C=C/C(=O)N[C@@H](c1ccco1)[C@@H](O)C(=O)O[C@H]1C[C@@]2(O)[C@@H](OC(=O)c3ccccc3)C3[C@](C)(C(=O)[C@H](O)C(=C1C)C2(C)C)[C@@H](OC(=O)COC)C[C@H]1OC[C@@]31OC(C)=O (some centres unmarked) [Compound 5835]	< 1
CCC(C)(C)OC(=O)NC(c1ccco1)C(O)C(=O)OC1CC2(O)C(OC(=O)c3ccccc3)C3C4(OC(C)=O)COC4CC(OC(=O)COC)C3(C)C(=O)C(O)C(=C1C)C2(C)C (centres unmarked) [Compound 6226, N-Debenzoyl-N-tert-amyloxycarbonyl-3′-desphenyl-3′-(2-furyl)-10-deacetyl-7-methoxyacetyl taxol]	< 1
CCC(C)(C)OC(=O)N[C@@H](c1ccco1)[C@@H](O)C(=O)O[C@H]1C[C@@]2(O)[C@@H](OC(=O)c3ccccc3)C3[C@](C)(C(=O)[C@H](O)C(=C1C)C2(C)C)[C@@H](OC(=O)COC(C)=O)C[C@H]1OC[C@@]31OC(C)=O (some centres unmarked) [Compound 6353]	< 1
